Laboratory results taken from BindingDB's records for doi:10.3109/14756366.2010.510471 (Suven Life Sciences, 2011).

Key:
Cytochrome P450 2D6 = Cytochrome P450 2D6 (Homo sapiens, UniProt P10635); assay: Isoform-Selective Assay
Experimental: (§1) The cytochrome P450 inhibitory potential was determined using isoform-selective assays and heterologously expressed human CYP2D6 and CYP3A4.

Cytochrome P450 3A4 = Cytochrome P450 3A4 (Homo sapiens, UniProt P08684); assay: Isoform-Selective Assay
Experimental: as §1

[1] = molecular target: 5-hydroxytryptamine receptor 6 (Homo sapiens, UniProt P50406); assay: Radioligand Binding Assay; conditions: pH 7.4; 37 °C
Experimental: Briefly, receptor source and radioligand used were human recombinant expressed in HEK-293 cells and [3H] LSD (60–80 Ci/mmol), respectively. The final ligand concentration was 1.5 nM and non-specific determinant was methiothepin mesylate (0.1 μM). The reference compound and positive control was methiothepin mesylate. Reactions were carried out in 50 mM TRISHCl (pH 7.4) containing 10 mM MgCl2, 0.5 mM EDTA for 60 min at 37 °C. The reaction was terminated by rapid vacuum filtration onto glass fibre filters.

Sequence of 5-hydroxytryptamine receptor 6 (P50406 whole entry): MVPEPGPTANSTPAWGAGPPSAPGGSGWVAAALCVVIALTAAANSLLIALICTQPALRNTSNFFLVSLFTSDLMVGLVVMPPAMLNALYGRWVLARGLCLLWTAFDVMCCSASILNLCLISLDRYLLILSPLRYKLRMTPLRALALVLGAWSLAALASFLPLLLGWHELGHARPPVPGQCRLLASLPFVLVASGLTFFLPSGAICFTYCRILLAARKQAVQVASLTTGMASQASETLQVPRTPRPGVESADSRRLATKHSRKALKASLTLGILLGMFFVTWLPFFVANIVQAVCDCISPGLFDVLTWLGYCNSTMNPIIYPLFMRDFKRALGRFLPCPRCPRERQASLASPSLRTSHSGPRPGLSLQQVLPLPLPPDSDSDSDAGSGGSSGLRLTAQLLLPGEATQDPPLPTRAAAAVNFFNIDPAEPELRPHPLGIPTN
Sequence of Cytochrome P450 2D6 (P10635 whole entry, canonical isoform): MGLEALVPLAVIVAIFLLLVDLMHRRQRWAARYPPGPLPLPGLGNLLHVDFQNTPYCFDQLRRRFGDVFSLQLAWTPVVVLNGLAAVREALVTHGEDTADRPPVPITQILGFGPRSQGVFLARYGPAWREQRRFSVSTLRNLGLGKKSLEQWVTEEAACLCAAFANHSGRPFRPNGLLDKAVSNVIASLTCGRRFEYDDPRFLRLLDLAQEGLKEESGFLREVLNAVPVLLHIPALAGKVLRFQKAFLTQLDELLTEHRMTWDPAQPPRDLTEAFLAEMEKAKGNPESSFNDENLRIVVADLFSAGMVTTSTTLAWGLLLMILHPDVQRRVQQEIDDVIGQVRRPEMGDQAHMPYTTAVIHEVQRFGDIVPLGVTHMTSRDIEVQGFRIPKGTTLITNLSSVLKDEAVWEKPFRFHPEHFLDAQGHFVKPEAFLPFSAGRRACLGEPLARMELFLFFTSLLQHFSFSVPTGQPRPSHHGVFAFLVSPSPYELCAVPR
Sequence of Cytochrome P450 3A4 (P08684 whole entry, canonical isoform): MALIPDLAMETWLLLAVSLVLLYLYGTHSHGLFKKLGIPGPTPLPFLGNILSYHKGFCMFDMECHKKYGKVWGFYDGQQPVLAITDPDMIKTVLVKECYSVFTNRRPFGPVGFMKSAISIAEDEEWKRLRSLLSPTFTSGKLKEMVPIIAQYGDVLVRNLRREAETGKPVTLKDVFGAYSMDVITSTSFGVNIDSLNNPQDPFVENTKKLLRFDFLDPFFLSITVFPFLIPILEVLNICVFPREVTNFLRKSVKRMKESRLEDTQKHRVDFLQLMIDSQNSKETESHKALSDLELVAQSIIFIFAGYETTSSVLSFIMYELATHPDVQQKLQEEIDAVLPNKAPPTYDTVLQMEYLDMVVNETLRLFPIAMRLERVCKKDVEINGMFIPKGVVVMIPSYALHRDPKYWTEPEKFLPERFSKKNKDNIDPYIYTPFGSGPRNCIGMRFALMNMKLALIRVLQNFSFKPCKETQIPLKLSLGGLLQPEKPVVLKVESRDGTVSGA

Row | IC50 (Cytochrome P450 2D6) [µM] | IC50 (Cytochrome P450 3A4) [µM] | Ki [1] [µM] | SMILES
1 | 5.06 | 37.1 | – | CN(C)CCOc1c2n(c3cc(Cl)ccc13)S(=O)(=O)c1ccccc1-2 [3-Chloro-10-(2-N,N-Dimethylaminoethoxy)-5-Thia-4-b-azaindeno (8b)]
2 | – | – | 0.464 | CN(C)CCOc1c2n(c3ccc(Cl)cc13)S(=O)(=O)c1ccccc1-2 [2-Chloro-10-(2-N,N-Dimethylaminoethoxy)-5-Thia-4-b-azaindeno[2,1-a]indene-5,5-Dioxide (8c)]
3 | – | – | > 0.5 | CN(C)CCOc1c2n(c3cccc(F)c13)S(=O)(=O)c1ccccc1-2 [1-Fluoro-10-(2-N,N-Dimethylaminoethoxy)-5-Thia-4-b-azaindeno [2,1-a]indene-5,5-Dioxide (8o)]
4 | – | – | 0.127 | COc1ccc2c(c1)c(OCCN(C)C)c1n2S(=O)(=O)c2ccccc2-1 [2-Methoxy-10-(2-N,N-Dimethylaminoethoxy)-5-Thia-4b-azaindeno[2,1-a]indene-5,5-Dioxide (8d)]
5 | 7.65 | > 45 | – | CN(C)CCOc1c2n(c3ccccc13)S(=O)(=O)c1ccccc1-2 [10-(2-N,N-Dimethylaminoethoxy)-5-Thia-4-b-azaindeno[2,1-a]indene-5,5-Dioxide (8a)]
